Patent US11241398B2, “Affinity medicant conjugate” (Califia Pharma Inc., priority 2014, dated 2022)
Like-named read-outs stand apart in the source and are kept apart here. Marks after values point to notes of the source that are not given here. Residues, ends and D or L forms follow the SMILES beside them. *: point of attachment. X3 = CC1=C(C*)C2=C(C)C3(CC3)C(C)(O)C(=O)C2=C1

Experiments:
8392B cell line [1] = assay: two hour toxicity: inhibition of 50% of DNA synthesis activity, nontarget cell line; type: cell-based; settings: read-out: Mean IC50 value, 8392B Nontarget Cell Line, 2 hr exposure, mean ± SD, N = 3 unless otherwise indicated
Experimental: (§1) The MV522 cell line is a lung-derived adenocarcinoma cell line. In various embodiments of the invention, the MV522 cell line represents a “target” cell line. […] The two hour toxicity data represents the concentration of a given analog for which a two hour exposure will inhibit 50% of the DNA synthesis activity in a given cell line. The 48 hour exposure data represents the concentration at which a given analog with a 48 hour exposure will inhibit the growth or viability in a given cell line as defined by the standard Trypan Blue Exclusion assay.

MV522 cell line [2] = assay: 48 hour exposure, growth or viability by Trypan Blue Exclusion assay, target cell line; type: cell-based; settings: read-out: Mean IC50 value, MV522 Target Cell Line, 48 hr exposure, mean ± SD, N = 3 unless otherwise indicated
Experimental: as §1

[3] = test system: NCI-DTP 60 cell line panel; settings: cited from earlier work
MV522 cell line [4] = assay: two hour toxicity: inhibition of 50% of DNA synthesis activity, target cell line; settings: for IC50: read-out: Mean IC50 value, MV522 Target Cell Line, 2 hr exposure, MV522 target cell line, 2 hr exposure, mean ± SD, N = 3 unless otherwise indicated; for cytotoxicity (in words): see Table XV
Experimental: as §1

MDR phenotypes = assay: multidrug resistance studies (mechanisms of drug resistance); type: cell-based; settings: multi-medicant resistance phenotype, Bcl-2 over expression, p53 and p21/WAF1 mutations
[5] = test system: hormone-refractory prostate cancer; settings: cited from earlier work
8392B cell line [6] = assay: 48 hour exposure, growth or viability by Trypan Blue Exclusion assay, nontarget cell line; type: cell-based; settings: read-out: Mean IC50 value, 8392B Nontarget Cell Line, 48 hr exposure; 8392B nontarget cell line; 48 hr exposure; mean ± SD, N = 3 unless otherwise indicated
Experimental: as §1

HT29 (ER Negative) = assay: cytotoxic data IC50, 2 hour exposure, cells not expressing the estrogen receptor; type: cell-based; settings: N = 3, mean ± SD
Excerpt: (§2) MCF7 over express estrogen alpha-receptors.
(§3) MCF7 cells over express estrogen alpha-receptors.

MCF7 (ER positive) = assay: cytotoxic data IC50, 2 hour exposure, cells expressing the estrogen receptor; type: cell-based; settings: Table VII
Excerpt: as §2, §3

For `CC1=C2C(=CC(C)(COC(=O)c3cc([N+](=O)[O-])cc([N+](=O)[O-])c3)C2OC(=O)CCCC(=O)O)C(=O)C(C)(O)C12CC2` (centres unmarked) [Analog 118], which IC50 (8392B cell line [1]) is on record?
Its IC50 is 24.5 ± 4.5 µM.

For `COC(=O)C1=C(C(=O)OC)C23C=C(C)C1C2=C(C)C1(CC1)C(C)(O)C3=O` (centres unmarked) [Analog 142], which IC50 (MV522 cell line [2]) is on record?
The IC50 was 0.024 ± 0.007 µM.

For `CC[C@H](C)[C@@H]([C@@H](CC(=O)N1CCC[C@H]1[C@H](OC)[C@@H](C)C(=O)NCCc1ccccc1)OC)N(C)C(=O)[C@@H](NC(=O)[C@H](C(C)C)N(C)C)C(C)C` [Auristatins], which “Mean LD50 cytotoxic” value ([3]; NCI DTP 60 cell line mean) is on record?
Its value is >5,000 nM.

And the “Mean TGI cytostatic” value ([3]; NCI DTP 60 cell line mean)?
Its value is 902** nM.

And the GI50 ([3]; read-out: Mean GI50 inhibition, NCI DTP 60 cell line mean)?
The GI50 was 0.0014 µM.

Which IC50 (8392B cell line [1]) does the source give for `CC1=C(CCCNS(C)(=O)=O)C2=C(C)C3(CC3)[C@@](C)(O)C(=O)C2=C1` [Analog 241] here?
Its IC50 is greater than 28 µM.

Which IC50 (MV522 cell line [4]) does the source give for `CC1=C(OC(=O)CCCCC(=O)c2ccccc2)C2=C(C)C3(CC3)[C@@](C)(O)C(=O)C2=C1` [Analog 158] here?
The IC50 was greater than 175 µM.

And the IC50 (8392B cell line [1])?
The IC50 was greater than 200 µM.

For `CC1=C(CO)C2=C(C)C3(CC3)[C@@](C)(O)C(=O)C2=C1` [Irofulven, 6-hydroxymethylacylfulvene], which “activity versus common resistance mechanisms” value (MDR phenotypes) is on record?
Its value is “independent of common resistance mechanisms”.

And the clinical activity [5]?
Its clinical activity is “demonstrated clinical activity”.

What about the safety profile [5] of the same molecule?
The safety profile was “acceptable safety profile”.

Which IC50 (MV522 cell line [4]) does the source give for `CC1=C(CSC[C@@H](C)C(=O)N2CCCC2C(=O)O)C2=C(C)C3(CC3)[C@@](C)(O)C(=O)C2=C1` (some centres unmarked) [Analog 098] here?
The IC50 was 18.8 ± 2.5 µM.

And the IC50 (8392B cell line [1])?
Its IC50 is greater than 65 µM.

What about the IC50 (MV522 cell line [2]) of the same molecule?
Its IC50 is 4.6 ± 0.25 µM.

What about the IC50 (8392B cell line [6]) of the same molecule?
Its IC50 is 11.7 ± 1.8 µM.

For `C=C1C[C@@H]2CC[C@@]34C[C@H]5O[C@H]6[C@@H](O3)[C@H]3O[C@H](CC[C@@H]3O[C@H]6[C@H]5O4)CC(=O)O[C@@H]3[C@@H](C)[C@@H]4O[C@@H]5C[C@]6(C[C@@H]7O[C@]8(C[C@H](C)[C@@H]9O[C@H]([C@@H](O)C[C@@H](O)CO)C[C@@H]9O8)C[C@H](C)[C@@H]7O6)O[C@@H]5C[C@@H]4O[C@H]3C[C@H]3O[C@@H](CC[C@@H]1O2)C[C@@H](C)C3=C` [Halichondrin B], which “Mean TGI cytostatic” value ([3]; NCI DTP 60 cell line mean) is on record?
The value was 199 nM.

And the “Mean LD50 cytotoxic” value [3]?
The value was >1,000 nM.

With `COC(=O)C1=C(C(=O)OC)C23C=C(C)C1C2=C(C)C1(CC1)C(C)(O)C3O` (centres unmarked) [Analog 141] as the molecule, how does the IC50 (8392B cell line [1]) read?
Its IC50 is 13.7 ± 1.9 µM.

And the IC50 (MV522 cell line [2])?
The IC50 was 3.7 ± 0.8 µM.

For `CC1=C(CCCN2C(=O)C=CC2=O)C2=C(C)C3(CC3)[C@@](C)(O)C(=O)C2=C1` [Analog 190], which “cytotoxicity (in words)” value (MV522 cell line [4]) is on record?
The value was “cytotoxic with nM activity”.

For `CC1=C2C(=CC(C)(C)C2OC(=O)CCCC(=O)Oc2ccc3c(c2)CCC2C3CCC3(C)C(O)CCC23)C(=O)C(C)(O)C12CC2` (centres unmarked) [Analog 109], which IC50 (MV522 cell line [4]) is on record?
The IC50 was greater than 50 µM.

What about the IC50 (8392B cell line [1]) of the same molecule?
The IC50 was greater than 50 µM.

For `CON(CC1=C(C)C=C2C(=O)[C@](C)(O)C3(CC3)C(C)=C21)C(=O)C(N)Cc1c[nH]c2ccccc12` (some centres unmarked) [Analog 154], which IC50 (MV522 cell line [4]) is on record?
The IC50 was greater than 70 µM.

What about the IC50 (8392B cell line [1]) of the same molecule?
Its IC50 is greater than 70 µM.

With `CC1=C(COC(=O)CCCCCN2C(=O)C=CC2=O)C2=C(C)C3(CC3)[C@@](C)(O)C(=O)C2=C1` [Analog 217] as the molecule, how does the “cytotoxicity (in words)” value (MV522 cell line [4]) read?
The value was “cytotoxic with nM activity”.

Which IC50 (HT29 (ER Negative)) does the source give for `CC1=C(CCC(=O)Oc2ccc3c(c2)CC[C@@H]2[C@@H]3CC[C@]3(C)C(=O)CC[C@@H]23)C2=C(C)C3(CC3)[C@@](C)(O)C(=O)C2=C1` [Analog 110] here?
The IC50 was greater than 19 µM.

What about the “preferential killing of MCF7 (ER positive) versus ER negative cells” value (MCF7 (ER positive)) of the same molecule?
Its value is “preferentially killed”.

What about the IC50 (MV522 cell line [4]) of the same molecule?
Its IC50 is greater than 55 µM.

And the IC50 (8392B cell line [1])?
The IC50 was greater than 55 µM.

And the IC50 (8392B cell line [6])?
Its IC50 is 25.3 ± 2.1 µM.

Which “differential toxicity between the target and nontarget cell line” value (MV522 cell line [4]; MV522 versus 8392B) does the source give for `CC1=CC2=C(C)C3(CC3)C(C)(O)C(=NO)C2=C1` (centres unmarked) [Analog 224] here?
The value was “no differential toxicity”.

And the “toxicity (in words)” value (MV522 cell line [4]; target and nontarget cell line)?
Its value is “minimal toxicity”.

Which IC50 (8392B cell line [1]) does the source give for `CC1=C(CCC(=O)OC2CCC3(C)C(CCC4C5CCC(=O)C5(C)CCC43)C2)C2=C(C)C3(CC3)[C@@](C)(O)C(=O)C2=C1` (some centres unmarked) [Analog 112] here?
The IC50 was 14.9 ± 0.1 µM.

What about the IC50 (8392B cell line [6]) of the same molecule?
Its IC50 is 5.2 ± 0.3 µM.

Which “preferential killing of MCF7 (ER positive) versus ER negative cells” value (MCF7 (ER positive)) does the source give for `CC1=C2C(=CC(C)(C)[C@@H]2O)C(=O)[C@](C)(O)C12CC2` [Illudin M, reference compound] here?
The value was “to the same extent”.

And the “Mean LD50 cytotoxic” value ([3]; NCI DTP 60 cell line mean)?
Its value is 912 nM.

With `CC1=C(CSCC(N)C(=O)NC(CC(N)=O)C(=O)NCC(=O)NC(CCCNC(=N)N)C(=O)NC(CS)C(=O)O)C2=C(C)C3(CC3)C(C)(O)C(=O)C2=C1` (centres unmarked) [Analog 102] (H-C(X3)NGRC-OH; configuration not given here) as the molecule, how does the IC50 (MV522 cell line [4]) read?
The IC50 was greater than 13 µM.

Which IC50 (MV522 cell line [4]) does the source give for `CC(=O)OCC1=C(CO)C=C2C(=O)C(C)(OC(C)=O)C3(CC3)C(C)=C21` (centres unmarked) [Analog 103] here?
Its IC50 is 31.8 ± 4.9 µM.

What about the IC50 (8392B cell line [1]) of the same molecule?
Its IC50 is 12.1 ± 2 µM.

And the IC50 (MV522 cell line [2])?
The IC50 was 5.9 ± 0.4 µM.

With `CC1=C(COC2OC(CO)C(O)C(O)C2O)C2=C(C)C3(CC3)C(C)(O)C(=O)C2=C1` (centres unmarked) [Analog 018] as the molecule, how does the IC50 (MV522 cell line [4]) read?
Its IC50 is 8.8 ± 2.9 µM.
